Test results from ChEMBL document CHEMBL1144165, “Cyclic diarylheptanoids from Myrica nana inhibiting nitric oxide release” (Bioorg Med Chem, 2008).
The source made the active and inactive calls. The rule behind the calls is not given here.

What was measured:
Macrophage [1] = test: Inhibition of LPS-stimulated nitric oxide production in BALB/c mouse macrophages at 30 uM after 20 hrs by Griess assay relative to control; assay type: functional
Macrophage [2] = test: Inhibition of LPS-stimulated nitric oxide production in BALB/c mouse macrophages at 1 uM after 20 hrs by Griess assay relative to control; assay type: functional
Macrophage [3] = test: Inhibition of LPS-stimulated nitric oxide production in BALB/c mouse macrophages at 100 uM after 20 hrs by Griess assay relative to control; assay type: functional
Macrophage [4] = test: Inhibition of LPS-stimulated nitric oxide production in BALB/c mouse macrophages at 10 uM after 20 hrs by Griess assay relative to control; assay type: functional
Macrophage [5] = test: Inhibition of LPS-stimulated nitric oxide production in BALB/c mouse macrophages after 20 hrs by Griess assay relative to control; assay type: functional, cell-based
Macrophage [6] = test: Inhibition of LPS-stimulated nitric oxide production in BALB/c mouse macrophages at 3 uM after 20 hrs by Griess assay relative to control; assay type: functional
Macrophage [7] = test: Inhibition of iNOS expression in LPS-activated BALB/c mouse macrophages at 1 to 100 uM after 12 hrs by SDS-PAGE; assay type: functional, cell-based

IC50 (Macrophage [5]) [µM]	SMILES	inhibition at 30 µM (Macrophage [1]) [%]	inhibition at 1 µM (Macrophage [2]) [%]	inhibition at 100 µM (Macrophage [3]) [%]	inhibition at 10 µM (Macrophage [4]) [%]	inhibition at 3 µM (Macrophage [6]) [%]	Activity (Macrophage [7])
46.2	O=C1CCc2ccc(O)c(c2)-c2cc(ccc2O)CCC(O)C1 (stereo unspecified) [ALNUSONOL]	41.1	-3.39	54.5	45.8	34.8	
45.3	COc1cc2cc(c1O)-c1cc(ccc1O)C[C@H](O)[C@@H](O)CCCC2 [MYRICANANIN A]	50.8	0.84	84.4	36	-0.13	Active
52.8	COc1c2cc(c(O)c1OC)CCCC[C@@H]1OC(C)(C)O[C@H]1Cc1ccc(O)c-2c1 [MYRICANANIN B]	49.7	17.3	55.8	39.2	32.8	
63.5	COc1cc2cc(c1O)-c1cc(ccc1O)CCC(=O)CCCC2 [MYRICANANIN C]	42.6	17.3	50.1	39.1	32.8	

Continued, compound first:

SMILES	IC50 (Macrophage [5]) [µM]	inhibition at 30 µM (Macrophage [1]) [%]	inhibition at 1 µM (Macrophage [2]) [%]	inhibition at 100 µM (Macrophage [3]) [%]	inhibition at 10 µM (Macrophage [4]) [%]	inhibition at 3 µM (Macrophage [6]) [%]	Activity (Macrophage [7])
COc1c2cc(c(O)c1OC)CCCCC(=O)/C=C\c1cc(O)c(O)c-2c1 [MYRICANANIN D]		19.1	6.12	31.8	23.8	17.7	
COc1c2cc(c(O)c1OC)CCCCC(=O)C(O)Cc1ccc(O)c-2c1 (stereo unspecified)	30.2	55.7	35.1	65.5	41.8	48.7	
COC1=C(OC)C(=O)C2=C(CCCCC(O)CCc3ccc(O)c2c3)C1=O (stereo unspecified) [ACTINIDIONE]		31.4	9.52	38.7	22.9	21.1	
COc1c2cc(c(O)c1OC)CCCCC(=O)C(OC)Cc1cc(O)c(O)c-2c1 (stereo unspecified) [MYRICANANIN E]		29.8	-3.27	49.2	15.3	9.22	
